This note sets out measurements from PubChem BioAssay AID248 (DTP/NCI, 2004).

Several values for one entry are separate records, joined by “and”; a condition that tells them apart may be missing. Equal entries are not always repeated. Inconclusive results and toxic doses are left out.

The test deals with L1210 leukemia ip in BDF1 mice, survival T/C. Put plainly: NCI In Vivo Anticancer Drug Screen. Data for tumor model L1210 Leukemia (intraperitoneal) in B6D2F1 (BDF1) mice. The following applies: endpoint: mean survival time, higher = longer survival. The procedure, abridged: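 Antitumor effect is assessed in tumor-bearing animals. Survival in the compound arm is compared with a vehicle-dosed control arm and expressed as their quotient.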

Setting [1] is: dose: 100.0 mg/kg/injection, schedule: Q04DX003 (ip), vehicle: Klucel (hydroxypropylcellulose) (HPC).
[2] abbreviates: dose: 200.0 mg/kg/injection, schedule: Q04DX003 (ip), vehicle: Klucel (hydroxypropylcellulose) (HPC).
The mark [3] stands for this setting: dose: 400.0 mg/kg/injection, schedule: Q04DX003 (ip), vehicle: Klucel (hydroxypropylcellulose) (HPC).
Setting [4] is: dose: 100.0 mg/kg/injection, schedule: Q04DX003 (ip), vehicle: saline with Tween-80.
The mark [5] stands for this setting: dose: 200.0 mg/kg/injection, schedule: Q04DX003 (ip), vehicle: saline with Tween-80.
Where [6] appears, read: dose: 400.0 mg/kg/injection, schedule: Q04DX003 (ip), vehicle: saline with Tween-80.
Where [7] appears, read: dose: 100.0 mg/kg/injection, schedule: Q01DX001 (ip), vehicle: saline.
Setting [8] is: dose: 200.0 mg/kg/injection, schedule: Q01DX001 (ip), vehicle: saline.
Setting [9] is: dose: 400.0 mg/kg/injection, schedule: Q01DX001 (ip), vehicle: saline.
[10] abbreviates: dose: 100.0 mg/kg/injection, schedule: Q01DX009 (ip), vehicle: saline.
Where [11] appears, read: dose: 100.0 mg/kg/injection, schedule: Q04DX003 (ip), vehicle: saline.
Where [12] appears, read: dose: 200.0 mg/kg/injection, schedule: Q04DX003 (ip), vehicle: saline.
Where [13] appears, read: dose: 400.0 mg/kg/injection, schedule: Q04DX003 (ip), vehicle: saline.

`O=C(O)CSC(SCC(=O)O)c1ccccc1`: the T/C is, setting by setting: (dose: 50.0 mg/kg/injection, schedule: Q04DX003 (ip), vehicle: Klucel (hydroxypropylcellulose) (HPC)) 108 % of control; under setting [1], 107 % of control; under setting [2], 100 % of control; under setting [3], 110 % of control.

`COc1ccc(OC(=O)Nc2ccccc2OC)cc1`: the T/C runs as follows: (dose: 100.0 mg/kg/injection, schedule: Q01DX009 (ip), vehicle: Klucel (hydroxypropylcellulose) (HPC)) 97 % of control; under setting [1], 98 % of control; (dose: 200.0 mg/kg/injection, schedule: Q01DX009 (ip), vehicle: Klucel (hydroxypropylcellulose) (HPC)) 100 % of control; under setting [2], 96 % of control; (dose: 400.0 mg/kg/injection, schedule: Q01DX009 (ip), vehicle: Klucel (hydroxypropylcellulose) (HPC)) 95 % of control; under setting [3], 95 % of control.

`CCOC1OC(C(O)CO)C(O)C1O` (configuration not stated): the T/C under setting [4] was 98 % of control, the T/C under setting [5] is 98 % of control and the T/C under setting [6] was 96 % of control.

With `CCCCCCOP(=O)(N1CC1)N1CC1`, the T/C is 102 % of control (dose: 0.62 mg/kg/injection, schedule: Q01DX001 (ip), vehicle: saline); 100 % of control (dose: 1.25 mg/kg/injection, schedule: Q01DX001 (ip), vehicle: saline); 103 % of control (dose: 2.5 mg/kg/injection, schedule: Q01DX001 (ip), vehicle: saline); 103 % of control (dose: 5.0 mg/kg/injection, schedule: Q01DX001 (ip), vehicle: saline); 152 % of control (dose: 10.0 mg/kg/injection, schedule: Q01DX001 (ip), vehicle: saline); 201 % of control (dose: 20.0 mg/kg/injection, schedule: Q01DX001 (ip), vehicle: saline). For the same compound, the T/C (dose: 40.0 mg/kg/injection, schedule: Q01DX001 (ip), vehicle: saline) is 287 % of control; the T/C (dose: 75.0 mg/kg/injection, schedule: Q01DX001 (ip), vehicle: saline) was 267 % of control; the T/C (dose: 150.0 mg/kg/injection, schedule: Q01DX001 (ip), vehicle: saline) is 247 % of control.

On to `CCCN1CCN(CCCO)CC1C` (configuration not stated), for which the T/C is 103 % of control under setting [7], 105 % of control under setting [8] and 103 % of control under setting [9].

Consider `O=C(O)CNCc1cccc(Br)c1`, for which the T/C runs as follows: under setting [10], 103 % of control; under setting [11], 95 % of control; (dose: 200.0 mg/kg/injection, schedule: Q01DX009 (ip), vehicle: saline) 92 % of control; under setting [12], 113 % of control; (dose: 400.0 mg/kg/injection, schedule: Q01DX009 (ip), vehicle: saline) 98 % of control; under setting [13], 98 % of control.

Regarding `CC(CN1CC(=O)NC(=O)C1)N1CC(=O)NC(=O)C1.[Cl-].[Pt+4]` (configuration not stated), the T/C by setting is: (dose: 6.25 mg/kg/injection, schedule: Q01DX009 (ip), vehicle: saline) 110 % of control; (dose: 25.0 mg/kg/injection, schedule: Q01DX009 (ip), vehicle: saline) 114 % of control and 120 % of control; (dose: 25.0 mg/kg/injection, schedule: Q04DX003 (ip), vehicle: saline) 108 % of control; (dose: 50.0 mg/kg/injection, schedule: Q01DX009 (ip), vehicle: saline) 120 % of control; (dose: 50.0 mg/kg/injection, schedule: Q04DX003 (ip), vehicle: saline) 109 % of control and 120 % of control; under setting [10], 114 % of control. Also, the T/C by setting is: under setting [11], 153 % of control; (dose: 150.0 mg/kg/injection, schedule: Q04DX003 (ip), vehicle: saline) 116 % of control.

Turning to `COc1ccc(/C=N/O)cc1`, the T/C was 100 % of control (dose: 50.0 mg/kg/injection, schedule: Q01DX001 (ip), vehicle: saline); 93 % of control under setting [7]; 100 % of control under setting [8]; 96 % of control under setting [9].

In the case of `CCCCC(CCCC)(C(=O)OCCOCCCl)c1cccc2ccccc12`, the T/C reads like this: (dose: 100.0 mg/kg/injection, schedule: Q04DX002 (ip), vehicle: saline with Tween-80) 101 % of control; (dose: 200.0 mg/kg/injection, schedule: Q04DX002 (ip), vehicle: saline with Tween-80) 95 % of control; (dose: 400.0 mg/kg/injection, schedule: Q04DX002 (ip), vehicle: saline with Tween-80) 99 % of control.

Consider `COC(=O)C1OC1c1cc(OC)ccc1OC` (configuration not stated), for which the T/C was 102 % of control (dose: 100.0 mg/kg/injection, schedule: Q01DX001 (ip), vehicle: saline with Tween-80); 102 % of control under setting [11]; 103 % of control (dose: 200.0 mg/kg/injection, schedule: Q01DX001 (ip), vehicle: saline with Tween-80); 100 % of control under setting [12]; 89 % of control (dose: 400.0 mg/kg/injection, schedule: Q01DX001 (ip), vehicle: saline with Tween-80); 97 % of control under setting [13].

`CNC(=O)c1cc(/C=C/c2c[nH]c3ccccc23)c[n+](C)c1`: the T/C (dose: 100.0 mg/kg/injection, schedule: Q01DX001 (ip), vehicle: other) is 102 % of control; the T/C (dose: 200.0 mg/kg/injection, schedule: Q01DX001 (ip), vehicle: other) is 100 % of control; the T/C (dose: 400.0 mg/kg/injection, schedule: Q01DX001 (ip), vehicle: other) is 94 % of control.

With `NC(N)=NN=C(C1CC1)C1CC1`, the T/C (dose: 15.0 mg/kg/injection, schedule: Q01DX Z (ip), vehicle: carboxymethylcellulose (CMC)) is 103 % of control; the T/C (dose: 30.0 mg/kg/injection, schedule: Q01DX Z (ip), vehicle: carboxymethylcellulose (CMC)) was 89 % of control; the T/C (dose: 60.0 mg/kg/injection, schedule: Q01DX Z (ip), vehicle: carboxymethylcellulose (CMC)) is 95 % of control; the T/C (dose: 120.0 mg/kg/injection, schedule: Q01DX Z (ip), vehicle: carboxymethylcellulose (CMC)) is 92 % of control and 96 % of control; the T/C (dose: 120.0 mg/kg/injection, schedule: Q01DX Z (oral), vehicle: carboxymethylcellulose (CMC)) is 105 % of control; the T/C (dose: 240.0 mg/kg/injection, schedule: Q01DX Z (ip), vehicle: carboxymethylcellulose (CMC)) is 92 % of control and 104 % of control. In addition, the T/C was 105 % of control (dose: 240.0 mg/kg/injection, schedule: Q01DX Z (oral), vehicle: carboxymethylcellulose (CMC)); 104 % of control (dose: 480.0 mg/kg/injection, schedule: Q01DX Z (ip), vehicle: carboxymethylcellulose (CMC)); 103 % of control (dose: 480.0 mg/kg/injection, schedule: Q01DX Z (oral), vehicle: carboxymethylcellulose (CMC)); 100 % of control (dose: 960.0 mg/kg/injection, schedule: Q01DX Z (oral), vehicle: carboxymethylcellulose (CMC)).

As to `CC1(C)CC(Br)C(=O)c2ccccc21` (configuration not stated), the T/C under setting [1] is 100 % of control, the T/C under setting [2] was 105 % of control and the T/C under setting [3] is 97 % of control.

Regarding `OCc1cc2ccccc2[nH]1`, the T/C is, setting by setting: (dose: 100.0 mg/kg/injection, schedule: Q01DX009 (ip), vehicle: saline with Tween-80) 100 % of control; under setting [4], 100 % of control; (dose: 200.0 mg/kg/injection, schedule: Q01DX009 (ip), vehicle: saline with Tween-80) 100 % of control; under setting [5], 96 % of control; (dose: 400.0 mg/kg/injection, schedule: Q01DX009 (ip), vehicle: saline with Tween-80) 101 % of control; under setting [6], 100 % of control.

In the case of `C=CC(C)=O.C=CC(C)=O.C=CC(C)=O.[W]`, the T/C reads like this: (dose: 100.0 mg/kg/injection, schedule: Q04DX003 (ip), vehicle: other) 94 % of control; (dose: 200.0 mg/kg/injection, schedule: Q04DX003 (ip), vehicle: other) 92 % of control; (dose: 400.0 mg/kg/injection, schedule: Q04DX003 (ip), vehicle: other) 97 % of control.
